Each substance was assayed on A549 cells (assay: Growth inhibition of siRNA-transfected A549 cells, SYBR Green I DNA content). Settings: 10 nM siRNA; DNA content 96 hours after transfection.
Type: cell-based, human
Protocol: A549 cells (human lung cancer cell line; ATCC No. CCL-185), SK-MeI-5 cells (human melanoma cell line; ATCC No. HTB-70), MCF-7 cells (human adenocarcinoma cell line; ATCC No. HTB-22), HCT-116 cells (colorectal carcinoma; ATCC CCL-247) and HCT-116 p53 null cells (derived from ATCC No. CCL-247; Bunz et al., Science 282:1497-1501, 1998) were cultured in RPMI 1640 medium with 10% v/v heat-inactivated fetal calf serum (FCS). Cells were seeded at a density of 5×10^4 cells/cm^2 in multi-well tissue culture plates. Sequences of Stealth™ siRNA duplexes (Invitrogen) targeting human ribonucleotide reductase subunit 1 (SEQ ID NO: 22) and subunit 2 (SEQ ID NO; 38) are given in SEQ ID NO: 4830-4832 (DNA), and SEQ ID NO: 5136-5138 (RNA) for RRM1, and SEQ ID NO: 5306-5308 (DNA), and SEQ ID NO: 5303-5305 (RNA) for RRM2. siRNAs were transfected at different concentrations into cells using Lipofectamine™ RNAiMAX transfection reagent (Invitrogen). Non-specific siRNA (SEQ ID NO: 4804 and 4805 (DNA), and SEQ ID NO: 5301 and 5302 (RNA)) were used as controls. The cellular DNA content was measured using a SYBR Green I-based fluorometric assay at 24, 48, 72 and 96 hours after transfection (120 hours for the MCF-7 cells), as follows. At the indicated time points following reverse transfection, cells were harvested and frozen at −80° C. overnight. Cells were thawed and cell lysis buffer (phosphate-buffered saline (PBS) containing 1% Triton X-100, pH 7) and SYBR Green I (1:10^5 V/V; Invitrogen) was added to the wells and incubated overnight in the dark at 4° C.
The following day, cell lysates were mixed thoroughly, and DNA fluorescence was measured with a Wallac Victor^2 plate reader (Turku, Finland) set at an excitation frequency of 485 nm and measuring emission at 535 nm.
To determine the duration of the knock-down effect of RRM1-targeting siRNA, A549 cells were reverse transfected with 1 or 10 nM RRM1-3 (SEQ ID NO: 4832 (DNA, and SEQ ID NO: 5138 (RNA)) or control siRNA (SEQ ID NO: 4804 (DNA), and SEQ ID NO: 5301 (RNA)), and growth followed over time. Growth inhibition was measured daily as described above for up to ten days. RRM1-3-mediated RRM1 silencing inhibited growth for at least 10 days post-transfection at both 1 and 10 nM (FIG. 11).
siRNA-mediated inhibition of cancer cell growth was determined in A549 cells as follows. A549 cells (human lung cancer cell line; ATCC No. CCL-185) were cultured in RPMI 1640 medium with 10% v/v heat-inactivated fetal calf serum. Cells were seeded at a density of 5×10^3 cells/cm^2 in multi-well tissue culture plates. Stealth™ siRNA duplexes (Invitrogen) targeting genes involved in cancer energy and metabolism pathways and listed in Table 9, were transfected at 10 nM into cells using Lipofectamine™ RNAiMAX transfection reagent (Invitrogen). Non-specific siRNA (SEQ ID NO: 4804 and 4805 (DNA), and SEQ ID NO: 5301 and 5302 (RNA)) were used as controls. The cellular DNA content was measured using a SYBR Green I-based fluorometric assay at 96 hours after transfection. The cells were harvested and frozen at −80° C. overnight. Cells were thawed and cell lysis buffer (phosphate-buffered saline (PBS) containing 1% Triton X-100, pH 7) and SYBR Green I (1:10^5 v/v; Invitrogen) was added to the wells and incubated overnight in the dark at 4° C. The following day, cell lysates were mixed thoroughly, and DNA fluorescence was measured with a Wallac Victor^2 plate reader (Turku, Finland) set at an excitation frequency of 485 nm and measuring emission at 535 nm.
Three different siRNAs were tested for each target gene. The average fluorescence units from three replicate wells, representing the amount of DNA per well, were used to determine the effect on growth inhibition. The results are given in Table 10 (energy and metabolism gene targets) and Table 11 (transporter gene targets).
siRNA-mediated RNAi was also determined on a panel of different cell lines. […]
In the case of “SEQ ID NO: 4854: siRNA targeting FASN (chain 1 ATGAAGCTCACCCAGTTATCCTTCC; chain 2 AUGAAGCUCACCCAGUUAUCCUUCC; Both strands are one antisense strand in DNA/RNA notation, chemistry not given here, further chemistry not given here; one strand in two spellings)”, the “Growth Inhibition in A549 cells” value is reported as “− (no growth inhibition with any siRNA)”. In the case of “SEQ ID NO: 4855: siRNA targeting FASN (chain 1 TTGGAAGGCACATCCCAGAGGAAGT; chain 2 UUGGAAGGCACAUCCCAGAGGAAGU; Both strands are one antisense strand in DNA/RNA notation, chemistry not given here, further chemistry not given here; one strand in two spellings)”, the “Growth Inhibition in A549 cells” value is reported as “+ (inhibits by at least 50%)”. In the case of “SEQ ID NO: 4856: siRNA targeting FASN (chain 1 CTTCGATGTATTCAAATGACTCAGG; chain 2 CUUCGAUGUAUUCAAAUGACUCAGG; Both strands are one antisense strand in DNA/RNA notation, chemistry not given here, further chemistry not given here; one strand in two spellings)”, the “Growth Inhibition in A549 cells” value is reported as “− (no growth inhibition with any siRNA)”. “SEQ ID NO: 4857: siRNA targeting ACLY (chain 1 ATAGTTTGCCAGCTCGTTGACACCC; chain 2 AUAGUUUGCCAGCUCGUUGACACCC; Both strands are one antisense strand in DNA/RNA notation, chemistry not given here, further chemistry not given here; one strand in two spellings)” was tested, and the “Growth Inhibition in A549 cells” value was “+ (inhibits by at least 50%)”. “SEQ ID NO: 4858: siRNA targeting ACLY (chain 1 TTCTTGATCAGCTTTCTCGTGAGGG; chain 2 UUCUUGAUCAGCUUUCUCGUGAGGG; Both strands are one antisense strand in DNA/RNA notation, chemistry not given here, further chemistry not given here; one strand in two spellings)” was tested, and the “Growth Inhibition in A549 cells” value was “− (no growth inhibition with any siRNA)”. “SEQ ID NO: 4859: siRNA targeting ACLY (chain 1 TACAGATGAACTTGTAAAGGAGTTC; chain 2 UACAGAUGAACUUGUAAAGGAGUUC; Both strands are one antisense strand in DNA/RNA notation, chemistry not given here, further chemistry not given here; one strand in two spellings)” was tested, and the “Growth Inhibition in A549 cells” value was “− (no growth inhibition with any siRNA)”. “SEQ ID NO: 4860: siRNA targeting SLC25A5 (ANT2) (chain 1 ATGCCAGATTCCCTGCAAAGTAGCG; chain 2 AUGCCAGAUUCCCUGCAAAGUAGCG; Both strands are one antisense strand in DNA/RNA notation, chemistry not given here, further chemistry not given here; one strand in two spellings)” was tested, and the “Growth Inhibition in A549 cells” value was “+ (inhibits by at least 50%)”. In the case of “SEQ ID NO: 4861: siRNA targeting SLC25A5 (ANT2) (chain 1 ATTTGTAGATCTTAACCAGGCAGTC; chain 2 AUUUGUAGAUCUUAACCAGGCAGUC; Both strands are one antisense strand in DNA/RNA notation, chemistry not given here, further chemistry not given here; one strand in two spellings)”, the “Growth Inhibition in A549 cells” value is reported as “− (no growth inhibition with any siRNA)”. With “SEQ ID NO: 4862: siRNA targeting SLC25A5 (ANT2) (chain 1 AGAACATTGGACCATGCACCCTTGA; chain 2 AGAACAUUGGACCAUGCACCCUUGA; Both strands are one antisense strand in DNA/RNA notation, chemistry not given here, further chemistry not given here; one strand in two spellings)” the “Growth Inhibition in A549 cells” value was “− (no growth inhibition with any siRNA)”. “SEQ ID NO: 4863: siRNA targeting SLC25A6 (ANT3) (chain 1 AAAGTACCTCCAGAACTGCGTGTGC; chain 2 AAAGUACCUCCAGAACUGCGUGUGC; Both strands are one antisense strand in DNA/RNA notation, chemistry not given here, further chemistry not given here; one strand in two spellings)” was tested, and the “Growth Inhibition in A549 cells” value was “++ (inhibits by at least 75%)”. With “SEQ ID NO: 4864: siRNA targeting SLC25A6 (ANT3) (chain 1 AAATCCAGCGGGTACACGAAGCAGA; chain 2 AAAUCCAGCGGGUACACGAAGCAGA; Both strands are one antisense strand in DNA/RNA notation, chemistry not given here, further chemistry not given here; one strand in two spellings)” the “Growth Inhibition in A549 cells” value was “− (no growth inhibition with any siRNA)”. For “SEQ ID NO: 4865: siRNA targeting SLC25A6 (ANT3) (chain 1 TTTGCGCCCGAACTGCATCATCATG; chain 2 UUUGCGCCCGAACUGCAUCAUCAUG; Both strands are one antisense strand in DNA/RNA notation, chemistry not given here, further chemistry not given here; one strand in two spellings)”, the “Growth Inhibition in A549 cells” value was “− (no growth inhibition with any siRNA)”. For “SEQ ID NO: 4866: siRNA targeting UQCRC2 (chain 1 ACACCAAGTCCAATCAAAGCCATTC; chain 2 ACACCAAGUCCAAUCAAAGCCAUUC; Both strands are one antisense strand in DNA/RNA notation, chemistry not given here, further chemistry not given here; one strand in two spellings)”, the “Growth Inhibition in A549 cells” value was “− (no growth inhibition with any siRNA)”. In the case of “SEQ ID NO: 4867: siRNA targeting UQCRC2 (chain 1 AAATGCATTTGCCTCTGCACTTCCC; chain 2 AAAUGCAUUUGCCUCUGCACUUCCC; Both strands are one antisense strand in DNA/RNA notation, chemistry not given here, further chemistry not given here; one strand in two spellings)”, the “Growth Inhibition in A549 cells” value is reported as “− (no growth inhibition with any siRNA)”. In the case of “SEQ ID NO: 4868: siRNA targeting UQCRC2 (chain 1 TTGCGGTCACACTTAATTTGCCACC; chain 2 UUGCGGUCACACUUAAUUUGCCACC; Both strands are one antisense strand in DNA/RNA notation, chemistry not given here, further chemistry not given here; one strand in two spellings)”, the “Growth Inhibition in A549 cells” value is reported as “+ (inhibits by at least 50%)”.
